Like-named read-outs stand apart in the source and are kept apart here. Some results are limits rather than exact numbers.

The test system of data set [1] is Namalwa (Burkitt's lymphoma). The data set can be described thus: In vitro cytotoxicity, growth back-extrapolation. Format: cell-based, human. The text has this:
(§1) Cytotoxicity of the maytansinoids and their antibody conjugates to non-adherent cell lines such as Namalwa and HL-60 can be measured by back-extrapolation of cell proliferation curves as described in Goldmacher et al, 135 J. Immunol. 3648-3651 (1985). Cytotoxicity of these compounds to adherent cell lines such as SKBR3 and KB can be determined by clonogenic assays as described in Goldmacher et al, 102 J. Cell Biol. 1312-1319 (1986).
(§2) The disulfide-containing maytansinoid drugs of the invention were evaluated for their ability to suppress proliferation of various human tumor cell lines in vitro. Two adherent cell lines KB (human epidermoid carcinoma) and SKBR3 (human breast tumor) and the non-adherent cell line, Namalwa (Burkitt's lymphoma) were used for the assessment of cytotoxicity of these compounds. Cells were exposed to the compounds for 24 hours and the surviving fractions of cells were measured in direct assays.
(§3) Cells of the human promyelocytic leukemia cell line, HL-60 (ATCC CCL 240) and the Burkitt's lymphoma cell line Namalwa (ATCC CRL 1432) were grown as suspension cultures in RPMI-1640 medium supplemented with 10% fetal calf serum and 2 mM L-glutamine. All other cell lines described below were grown as adherent cultures. Human epidermoid carcinoma cell line, KB (ATCC CCL 17), human renal carcinoma cell line A498 (ATCC HTB 44), human colon adenocarcinoma cell lines SW620 (ATCC CCL 227) and HT-29 (ATCC HTB 38) were grown in RPMI-1640 medium supplemented with 10% fetal calf serum and 2 mM L-glutamine. Human breast carcinoma SKBR3 cells (ATCC HTB 30) were grown in DMEM supplemented with 15% fetal calf serum containing 2 mM glutamine and the human ovarian adenocarcinoma cell line OVCAR3 (ATCC HTB 161) was grown in RPMI-1640 medium supplemented with 10% fetal calf serum containing 10 µg/ml insulin and 2 mM L-glutamine.
(§4) Cytotoxicity assays were performed in the respective media described above. The cytotoxicity of the maytansinoids and their antibody conjugates to HL-60 and Namalwa cells was measured by back-extrapolation of cell proliferation curves. Cytotoxicity of these compounds to the rest of the cell lines was determined using a clonogenic assay as previously described.

For data set [2], the system named is SKBR3 (human breast tumor). The data set can be described thus: In vitro cytotoxicity, clonogenic assay (plating efficiency). Format: cell-based.
Source text: as §1
The disulfide-containing maytansinoid drugs of the invention were evaluated for their ability to suppress proliferation of various human tumor cell lines in vitro. Two adherent cell lines KB (human epidermoid carcinoma) and SKBR3 (human breast tumor) and the non-adherent cell line, Namalwa (Burkitt's lymphoma) were used for the assessment of cytotoxicity of these compounds. […]
as §3, §4

For data set [3], the system named is KB (human epidermoid carcinoma). The description is as above. Format: cell-based. As to conditions: for times less toxic than L counterpart: D-aminoacyl isomer vs L counterpart (6c, 6e), all three cell lines (KB, SKBR3, Namalwa); for fold more toxic than maytansine: KB and SKBR3 cells, ratio of IC50 values.
Source text: as §1, §2, §3, §4

Data set [4] concerns Ovcar3 (Ovarian carcinoma). The data set can be described thus: In vitro cytotoxicity, clonogenic assay. As to conditions: for IC50: Homo sapiens, OVCAR-3, 24 h, read-out: IC50(24hr.exposure). On the procedure:
as §3, §4

In data set [5] the test system is SW620 (Colon adenocarcinoma). The data set can be described thus: In vitro cytotoxicity, clonogenic assay. The format is cell-based, human. As to conditions: for IC50: Homo sapiens, read-out: IC50(24hr.exposure). On the procedure: as §3, §4
The subject of data set [6] is HL60(Promyelocytic leukemia). The data set can be described thus: In vitro cytotoxicity, back-extrapolation of cell proliferation curves. The format is cell-based. As to conditions: Homo sapiens, HL-60; HL60, 24hr exposure. On the procedure: (§5) Since the methyldithio-maytansinoids are even more toxic than maytansine to solid tumor cell lines like KB and SKBR3, a wider panel of solid tumor cell lines was tested in a manner analogous to that described above to see whether this was a general phenomenon.
as §3, with “Human breast carcinoma SKBR3 cells (ATCC HTB 30) were grown in DMEM supplemented with 15% fetal calf serum containing 2 mM glutamine and the human ovarian adenocarcinoma cell line OVCAR3 (ATCC HTB 161) was grown in RPMI-1640 medium supplemented with 10% fetal calf serum containing 10 µg/ml insulin and 2 mM L-glutamine.” left out
as §4

For data set [7], the system named is P388 lymphocytic leukemia system. As to conditions: cited from earlier work.
For a further data set, the system named is A498 (Renal carcinoma). The data set can be described thus: In vitro cytotoxicity, clonogenic assay. The format is cell-based, human. As to conditions: for IC50: Homo sapiens, A498, 24hr exposure. On the procedure: as §5, §3, §4
The next data set concerns L1210 cells. As to conditions: L1210 cells in vitro; cited from earlier work.
The subject of data set [8] is P388, L1210, and LY5178 murine leukemic cell suspensions. Particulars: P388, L1210 and LY5178, P388 most sensitive; cited from earlier work.
Data set [9] has as its system human acute lymphoblastic leukemia line C.E.M. As to conditions: cited from earlier work.
[10] abbreviates: Homo sapiens, 24 h, NAMALWA, 24 hour exposure, read-out: IC50.
[11] abbreviates: Homo sapiens, SK-BR-3, 24 h, SKBR3, 24 hour exposure.
Where [12] appears, read: Homo sapiens, 24 h, KB, 24 hour exposure.
[13] abbreviates: Homo sapiens, 24 h, Namalwa, 24hr exposure (Table 2), read-out: IC50(24hr.exposure).

As a reminder, the IC50 is the midpoint of a concentration-inhibition curve. For `COc1cc2cc(c1Cl)N(C)C(=O)C[C@H](OC(=O)[C@H](C)N(C)C(=O)CCS)[C@]1(C)O[C@H]1[C@H](C)[C@@H]1C[C@@](O)(NC(=O)O1)[C@H](OC)/C=C/C=C(\C)C2` [Compound 7b], the values for the IC50 in data set [1] (setting [10]), in data set [2] (setting [11]) and in data set [3] (setting [12]) were 10000 pM, less than 10 pM and 600 pM, respectively.

As to `COc1cc2cc(c1Cl)N(C)C(=O)C[C@H](OC(=O)[C@@H](C)N(C)C(=O)CCCSSC)[C@]1(C)O[C@H]1[C@H](C)[C@@H]1C[C@@](O)(NC(=O)O1)[C@H](OC)/C=C/C=C(\C)C2` [Compound 6d], the IC50 in data set [1] (setting [10]) was 13000 pM; in [3] (setting [12]), 190 pM. Moreover, the “times less toxic than L counterpart” value in [3] is not below 20 times.

As to `COc1cc2cc(c1Cl)N(C)C(=O)C[C@H](OC(=O)[C@H](C)N(C)C(=O)CCCSSC)[C@]1(C)O[C@H]1[C@H](C)[C@@H]1C[C@@](O)(NC(=O)O1)[C@H](OC)/C=C/C=C(\C)C2` [Compound 6c], the IC50 was not below 3000 pM in data set [1] (setting [10]); 3200 pM in data set [1] (NAMALWA, 24 hour exposure, read-out: IC50); not above 10 pM in data set [3] (setting [12]); 8.5 pM in data set [3] (KB, 24 hour exposure). Moreover, the “fold more toxic than maytansine” value in data set [3] is listed as 3-10 fold.

On to `COc1cc2cc(c1Cl)N(C)C(=O)C[C@H](OC(=O)[C@H](C)N(C)C(C)=O)[C@]1(C)O[C@H]1[C@H](C)[C@@H]1C[C@@](O)(NC(=O)O1)[C@H](OC)/C=C/C=C(\C)C2` [Compound 1a, maytansine, reference compound], for which the IC50 is 100 pM in data set [4]; 400 pM in [1] (setting [10]); 400 pM in [1] (setting [13]); more than 100 pM in [5] (SW-620, SW620, 24hr exposure); 500 pM in [6]; 100 pM in data set [2] (Homo sapiens, SK-BR-3, 24 h, SKBR3, 24 hour exposure, read-out: IC50). Besides, the IC50 in data set [2] (Homo sapiens, SK-BR-3, 24 h, SKBR3, 24hr exposure (Table 2), read-out: IC50(24hr.exposure)) is 110 pM; in [3] (Homo sapiens, 24 h, KB, 24 hour exposure, read-out: IC50) it was 30 pM; in [3] (Homo sapiens, 24 h, KB, 24hr exposure (Table 2), read-out: IC50(24hr.exposure)), 34 pM; in the data set with A498 (Renal carcinoma), more than 100 pM. In addition, the surviving fraction in [5] (SW620, at 1x10^-10 M) turned out to be 100%; in the data set with A498 (Renal carcinoma) (A498, at 1x10^-10 M), 100%. The “dosage range over which tumor growth was inhibited” value in [7] was 50- to 100 fold. Besides, the “cells accumulating in mitosis” value in the data set on L1210 cells was 67%. For the same compound, the “inhibited at doses of” value in data set [8] was 10^-3 to 10^-7 microgram/ml. Besides, in data set [9], the “inhibited by concentrations as low as” value is on record as 10^-7 microgram/ml.

As to `COc1cc2cc(c1Cl)N(C)C(=O)C[C@H](OC(=O)[C@H](C)N(C)C(=O)CCSSC)[C@]1(C)O[C@H]1[C@H](C)[C@@H]1C[C@@](O)(NC(=O)O1)[C@H](OC)/C=C/C=C(\C)C2` [Compound 6b], the IC50 in data set [4] was 50 pM; in [1] (setting [13]) it was 6000 pM; in [5] (SW-620, 24 h), 40 pM; in data set [6], 800 pM; in [2] (setting [11]) it was not above 10 pM; in data set [2] (SKBR3, 24 hour exposure) it was 11 pM. Moreover, the IC50 in data set [2] (SKBR3, 72hr exposure) is 1x10^-13 Molar; in data set [3] (setting [12]), not above 10 pM; in [3] (Homo sapiens, 24 h, read-out: IC50(24hr.exposure), KB, 24hr exposure (Table 2)), 11 pM; in the data set with A498 (Renal carcinoma), 100 pM. In [4] (OVCAR3), the “cytotoxicity relative to maytansine” value is listed as “twice as cytotoxic”. Also, the “fold more toxic than maytansine” value in [3] is 3-10 fold.

Consider `COc1cc2cc(c1Cl)N(C)C(=O)C[C@H](OC(=O)[C@H](C)N(C)C(=O)CCSSc1ccccc1)[C@]1(C)O[C@H]1[C@H](C)[C@@H]1C[C@@](O)(NC(=O)O1)[C@H](OC)/C=C/C=C(\C)C2` [Compound 6e], for which the IC50 is 600 pM in data set [1] (setting [10]) and 100 pM in data set [3] (setting [12]).

For `COc1cc2cc(c1Cl)N(C)C(=O)C[C@H](OC(=O)[C@@H](C)N(C)C(=O)CCSSc1ccccc1)[C@]1(C)O[C@H]1[C@H](C)[C@@H]1C[C@@](O)(NC(=O)O1)[C@H](OC)/C=C/C=C(\C)C2` [Compound 6f], the IC50 was 8000 pM in data set [1] (setting [10]) and 2000 pM in data set [3] (setting [12]). The “times less toxic than L counterpart” value in data set [3] was not below 20 times.

Values taken from patent EP0425235B1, “Cytotoxic agents comprising maytansinoids and their therapeutic use” (IMMUNOGEN INC, priority 1989, dated 1991).
